What was measured:
Human primary T cells [1] = experiment: T cell activation: secreted IFN-y; assay type: cell-based; conditions: 48 hours, fold over background normalized to Compound 141A
Summary of the method: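 Negatively selected primary human T cells (1×10^5/well, serum-free XVivo-15) on plates coated with 10 μg/mL anti-CD3 were exposed to serial compound dilutions for 48 h at 37 °C. Secreted IFN-γ was measured by cytometric bead array and expressed as fold over anti-CD3/CD28 background, normalized to a reference compound and binned into ranges A–D.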

Human primary T cells [2] = experiment: T cell activation: secreted IL-2; assay type: cell-based; conditions: 48 hours, fold over background normalized to Compound 141A
Summary of the method: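 Negatively selected human primary T cells on plate-bound anti-CD3 (OKT3) in serum-free medium, treated 48 h at 37° C. with serial compound dilutions in duplicate. Secreted IL-2 by bead-based cytometric assay, expressed as fold over anti-CD3/CD28 background normalized to a reference compound, then binned into ranges.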

[3] = molecular target: Cbl-b (36-427 aa truncated form, N-terminus Avi-tag) (Homo sapiens (Human), UniProt Q13191); experiment: Cbl-b binding: TR-FRET displacement of BODIPY-FL probe
Cbl-b (36-427 aa truncated form, N-terminus Avi-tag), sequence (Q13191 36-427): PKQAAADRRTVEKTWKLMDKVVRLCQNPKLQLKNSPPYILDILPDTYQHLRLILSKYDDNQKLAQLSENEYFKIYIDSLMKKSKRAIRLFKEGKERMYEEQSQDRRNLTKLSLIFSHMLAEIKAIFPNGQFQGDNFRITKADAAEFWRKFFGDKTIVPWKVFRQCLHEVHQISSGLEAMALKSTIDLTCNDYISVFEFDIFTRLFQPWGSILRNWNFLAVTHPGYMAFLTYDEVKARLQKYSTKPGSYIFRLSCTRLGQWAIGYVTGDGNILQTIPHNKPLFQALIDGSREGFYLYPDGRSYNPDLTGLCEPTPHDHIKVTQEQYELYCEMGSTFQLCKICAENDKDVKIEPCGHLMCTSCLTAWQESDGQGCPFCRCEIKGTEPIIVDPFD
Summary of the method: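 Avi-tagged Cbl-b 36-427 preincubated 1 h at RT with streptavidin-terbium in HEPES pH 7.5/NaCl/Triton/BSA/TCEP buffer, then 1 uM BODIPY-FL inhibitor probe plus compound added for 1 h. Probe displacement read by TR-FRET; IC50 fitted.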

Human primary T cells [4] = experiment: T cell activation: CD69 surface expression by flow cytometry; assay type: cell-based; conditions: fold over anti-CD3 stimulated background normalized to Compound 141A
Summary of the method: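 Negatively selected human primary T cells (1×10^5/well, XVivo-15) were captured on plates coated with 10 μg/mL anti-CD3 (OKT3). They were exposed to serially diluted compounds in duplicate for 48 h at 37° C. CD69 was read by flow cytometry as fold over anti-CD3-only background, normalized to Compound 141A and binned into ranges.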

[5] = test system: human peripheral blood pan-T cells; experiment: T cell activation by small molecule inhibitors of Cbl-b (biomarker flow cytometry); assay type: cell-based; conditions: 10 μM, 48 hours
Procedure: Cryopreserved human peripheral blood pan-T cells (StemCell, 70024) were defrosted and resuspended in Immunocult-XF T cell Expansion Medium (StemCell, 10981). Cells were plated at 8×10^5 cells per well in 24 well plates, in presence or absence of pre-coated anti-CD3 (OKT3) antibody (ThermoFisher, 16-0037-85). Pre-coating of plates was done by diluting anti-CD3 antibody to 10 μg/mL in PBS and adding 1 ml to each well. Plates were incubated at 4° C. overnight or at 37° C. for 2 hours and washed once with PBS before use. Dilution of each small molecule cbl-b inhibitor was added. Untreated cell was used as a control. Plates were incubated for 48 hours at 37° C. with 5% CO2. T cells were fixed and permeabilized with Intracellular Fixation & Permeabilization Buffer Set (ThermoFisher, 88-8824), and continuously stained with one of PE-conjugated antibody listed in Table 10. Stained T cells were then analyzed with by flow cytometry (ThermoFisher Attune NxT). The percent of positive cells of each treated group was normalized with untreated cell and sorted into bins as follows: fold over background values from 10 to 14.9: range “A;” values from 5.0 to 9.9: range “B;” values from 2.0 to 4.9: range “C;” and values from 0.1 to 1.9: range “D.” Only for Notch1, geometric mean was used.

[6] = +CD3 (pre-coated anti-CD3 OKT3)

CCNc1cc(C2(Cc3nncn3C)COC2)cc(N2Cc3c(SC)cc(CN4CCC[C@H](C)C4)cc3C2=O)n1 [Compound 126, 2-[6-(ethylamino)-4-{3-[(4-methyl-1,2,4-triazol-3-yl)methyl]oxetan-3-yl}pyridin-2-yl]-6-{[(3S)-3-methylpiperidin-1-yl]methyl}-4-(methylsulfanyl)-3H-isoindol-1-one] was tested, and the “IFN-y 1 nM” value (Human primary T cells [1]; 1 nM compound) was “B (values between 0.31 and 1.00: range “B;”)”, the “IFN-y 10 nM” value (Human primary T cells [1]; 10 nM compound) was “B (values between 0.31 and 1.00: range “B;”)” and the “IFN-y 100 nM” value (Human primary T cells [1]; 100 nM compound) was “A (fold over background between 1.10 and 2.00: range “A”)”. For the same compound, the “IL-2 1 nM” value (Human primary T cells [2]; 1 nM compound) was “C (values between 0.10 and 0.30: range “C”)”, the “IL-2 10 nM” value (Human primary T cells [2]; 10 nM compound) was “B (values between 0.31 and 0.79: range “B”)” and the “IL-2 100 nM” value (Human primary T cells [2]; 100 nM compound) was “A (between 0.80 and 1.40: range “A”)”. For the same compound, the IC50 [3] was 1 to 5 nM, the “CD69 10 nM” value (Human primary T cells [4]; 10 nM compound) was “A (values between 0.81 and 1.10: range “A”)” and the “CD69 100 nM” value (Human primary T cells [4]; 100 nM compound) was “A (values between 0.81 and 1.10: range “A”)”. The “Notch 1, geometric mean normalized with untreated cell (fold over background)” value [5, 6] was “C (values from 2.0 to 4.9: range “C;”)”, the “pCD3zeta, percent of positive cells normalized with untreated cell (fold over background)” value [5, 6] was “D (values from 0.1 to 1.9: range “D.”)” and the “pHS1, percent of positive cells normalized with untreated cell (fold over background)” value [5, 6] was “C (values from 2.0 to 4.9: range “C;”)”. The “pLYN, percent of positive cells normalized with untreated cell (fold over background)” value [5, 6] was “D (values from 0.1 to 1.9: range “D.”)”, the “pPLCg1, percent of positive cells normalized with untreated cell (fold over background)” value [5, 6] was “C (values from 2.0 to 4.9: range “C;”)” and the “pPLCg2, percent of positive cells normalized with untreated cell (fold over background)” value [5, 6] was “D (values from 0.1 to 1.9: range “D.”)”. For the same compound, the “pZAP70, percent of positive cells normalized with untreated cell (fold over background)” value [5, 6] was “C (values from 2.0 to 4.9: range “C;”)”, the “Notch 1, geometric mean normalized with untreated cell (fold over background)” value ([5]; −CD3) was “D (values from 0.1 to 1.9: range “D.”)” and the “pCD3zeta, percent of positive cells normalized with untreated cell (fold over background)” value ([5]; −CD3) was “C (values from 2.0 to 4.9: range “C;”)”. For the same compound, the “pHS1, percent of positive cells normalized with untreated cell (fold over background)” value ([5]; −CD3) was “B (values from 5.0 to 9.9: range “B;”)”, the “pLYN, percent of positive cells normalized with untreated cell (fold over background)” value ([5]; −CD3) was “C (values from 2.0 to 4.9: range “C;”)” and the “pPLCg1, percent of positive cells normalized with untreated cell (fold over background)” value ([5]; −CD3) was “C (values from 2.0 to 4.9: range “C;”)”. The “pPLCg2, percent of positive cells normalized with untreated cell (fold over background)” value ([5]; −CD3) was “B (values from 5.0 to 9.9: range “B;”)” and the “pZAP70, percent of positive cells normalized with untreated cell (fold over background)” value ([5]; −CD3) was “C (values from 2.0 to 4.9: range “C;”)”.

Source: patent US20250304563A1, “ACTIVATORS OF EFFECTOR T CELLS” (Orum Therapeutics, Inc., priority 2022, published 2025)
